Laboratory results taken from the supplement of paper PMC7796163.
± gives the uncertainty stated by the source.

What was measured:
Experiment in all cases: CYP enzyme activity (probe substrate metabolite formation) fold change vs solvent control; higher = stronger induction of CYP activity
Details in all cases: HepaRG
CYP2B6 = target: T1, CYP2B6 (UniProt P20813)
T1 sequence (whole entry): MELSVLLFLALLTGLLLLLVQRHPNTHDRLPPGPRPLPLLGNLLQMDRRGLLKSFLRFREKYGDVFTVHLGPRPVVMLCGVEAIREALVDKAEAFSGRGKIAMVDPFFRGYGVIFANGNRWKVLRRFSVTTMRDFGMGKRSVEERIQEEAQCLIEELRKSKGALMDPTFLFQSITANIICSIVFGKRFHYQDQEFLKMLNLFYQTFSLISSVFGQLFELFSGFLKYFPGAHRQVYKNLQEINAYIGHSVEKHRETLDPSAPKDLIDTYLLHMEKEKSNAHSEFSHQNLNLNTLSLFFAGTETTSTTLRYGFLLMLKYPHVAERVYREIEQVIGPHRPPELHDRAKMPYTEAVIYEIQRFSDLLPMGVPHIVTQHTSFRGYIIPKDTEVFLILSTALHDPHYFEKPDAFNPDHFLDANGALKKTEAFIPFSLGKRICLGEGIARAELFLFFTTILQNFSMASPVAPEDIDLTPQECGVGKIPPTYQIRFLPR
Experimental: (§1)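 Differentiated HepaRG cells were treated with 1, 5 or 10 µM of each PAH (0.5% DMSO) for 12, 24 or 48 h, then incubated for 3 h at 37 °C with a cocktail of isoform-specific CYP substrates (phenacetin for CYP1A2, bupropion for CYP2B6, amodiaquine for CYP2C8, tolbutamide for CYP2C9, mephenytoin for CYP2C19, propafenone for CYP2D6, atorvastatin for CYP3A4). Metabolite formation was quantified by LC-MS as a measure of CYP activity and reported as fold change over solvent control (mean ± SD, n=3). Values below the LLOQ were set to half the LLOQ.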

CYP2D6 = CYP2D6 (UniProt P10635)
Experimental: as §1

CYP1A2 = target: T2, CYP1A2 (UniProt P05177)
T2 sequence (whole entry): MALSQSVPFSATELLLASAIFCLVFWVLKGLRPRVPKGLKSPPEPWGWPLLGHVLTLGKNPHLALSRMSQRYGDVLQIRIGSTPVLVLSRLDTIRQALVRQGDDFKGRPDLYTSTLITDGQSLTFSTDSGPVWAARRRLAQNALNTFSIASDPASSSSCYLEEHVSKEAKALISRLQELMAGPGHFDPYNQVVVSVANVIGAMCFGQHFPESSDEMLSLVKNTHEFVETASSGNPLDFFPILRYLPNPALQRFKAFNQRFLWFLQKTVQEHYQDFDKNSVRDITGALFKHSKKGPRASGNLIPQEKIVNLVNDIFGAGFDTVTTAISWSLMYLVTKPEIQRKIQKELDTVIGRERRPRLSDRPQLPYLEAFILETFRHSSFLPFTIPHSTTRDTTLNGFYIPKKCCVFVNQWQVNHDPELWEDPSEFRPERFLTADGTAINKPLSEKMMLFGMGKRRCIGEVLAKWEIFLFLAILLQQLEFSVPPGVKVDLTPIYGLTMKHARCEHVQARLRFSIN
Experimental: as §1

CYP2C9 = CYP2C9 (UniProt P11712)
Experimental: as §1

CYP3A4 = CYP3A4 (UniProt P08684)
Experimental: as §1

CYP2C19 = CYP2C19 (UniProt P33261)
Experimental: as §1

CYP2C8 = target: T3, CYP2C8 (UniProt P10632)
T3 sequence (whole entry): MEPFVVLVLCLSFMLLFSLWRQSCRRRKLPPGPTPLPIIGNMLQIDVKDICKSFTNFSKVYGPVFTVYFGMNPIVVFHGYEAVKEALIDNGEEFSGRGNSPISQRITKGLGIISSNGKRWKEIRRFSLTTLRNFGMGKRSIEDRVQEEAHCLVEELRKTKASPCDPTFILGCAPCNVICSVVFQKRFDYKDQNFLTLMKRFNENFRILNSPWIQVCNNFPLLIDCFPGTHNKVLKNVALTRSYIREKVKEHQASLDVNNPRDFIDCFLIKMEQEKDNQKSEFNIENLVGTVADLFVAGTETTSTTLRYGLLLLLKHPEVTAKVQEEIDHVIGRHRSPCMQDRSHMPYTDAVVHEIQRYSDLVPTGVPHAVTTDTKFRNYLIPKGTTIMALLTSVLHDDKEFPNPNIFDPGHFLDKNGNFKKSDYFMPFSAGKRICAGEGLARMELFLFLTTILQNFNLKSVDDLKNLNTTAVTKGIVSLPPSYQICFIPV
Experimental: as §1

Sequence of CYP3A4 (P08684 whole entry): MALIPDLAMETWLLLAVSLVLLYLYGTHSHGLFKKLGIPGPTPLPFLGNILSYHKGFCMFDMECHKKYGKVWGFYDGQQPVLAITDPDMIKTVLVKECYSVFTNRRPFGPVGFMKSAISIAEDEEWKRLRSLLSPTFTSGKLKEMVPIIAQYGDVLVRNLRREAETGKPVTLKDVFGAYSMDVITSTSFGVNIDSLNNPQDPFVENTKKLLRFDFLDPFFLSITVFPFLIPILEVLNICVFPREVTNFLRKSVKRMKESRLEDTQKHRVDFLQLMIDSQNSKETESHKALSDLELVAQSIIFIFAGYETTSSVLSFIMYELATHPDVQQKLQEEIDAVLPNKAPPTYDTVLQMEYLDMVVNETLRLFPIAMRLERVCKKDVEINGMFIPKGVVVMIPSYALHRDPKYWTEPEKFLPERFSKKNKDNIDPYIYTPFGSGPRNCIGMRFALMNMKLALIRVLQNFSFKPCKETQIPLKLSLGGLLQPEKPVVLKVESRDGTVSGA
Sequence of CYP2C19 (P33261 whole entry): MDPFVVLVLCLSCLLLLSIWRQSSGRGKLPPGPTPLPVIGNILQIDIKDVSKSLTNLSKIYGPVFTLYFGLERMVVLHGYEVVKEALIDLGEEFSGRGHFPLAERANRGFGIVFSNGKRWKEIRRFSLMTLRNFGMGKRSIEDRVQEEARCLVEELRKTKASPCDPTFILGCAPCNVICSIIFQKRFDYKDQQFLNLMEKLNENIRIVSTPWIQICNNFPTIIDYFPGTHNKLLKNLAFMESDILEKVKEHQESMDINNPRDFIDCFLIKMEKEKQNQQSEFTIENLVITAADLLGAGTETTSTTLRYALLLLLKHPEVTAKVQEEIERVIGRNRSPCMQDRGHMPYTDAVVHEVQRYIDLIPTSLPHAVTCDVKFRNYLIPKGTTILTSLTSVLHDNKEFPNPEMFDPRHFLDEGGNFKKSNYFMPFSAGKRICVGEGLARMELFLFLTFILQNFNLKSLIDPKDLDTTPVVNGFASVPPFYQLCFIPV
Sequence of CYP2C9 (P11712 whole entry): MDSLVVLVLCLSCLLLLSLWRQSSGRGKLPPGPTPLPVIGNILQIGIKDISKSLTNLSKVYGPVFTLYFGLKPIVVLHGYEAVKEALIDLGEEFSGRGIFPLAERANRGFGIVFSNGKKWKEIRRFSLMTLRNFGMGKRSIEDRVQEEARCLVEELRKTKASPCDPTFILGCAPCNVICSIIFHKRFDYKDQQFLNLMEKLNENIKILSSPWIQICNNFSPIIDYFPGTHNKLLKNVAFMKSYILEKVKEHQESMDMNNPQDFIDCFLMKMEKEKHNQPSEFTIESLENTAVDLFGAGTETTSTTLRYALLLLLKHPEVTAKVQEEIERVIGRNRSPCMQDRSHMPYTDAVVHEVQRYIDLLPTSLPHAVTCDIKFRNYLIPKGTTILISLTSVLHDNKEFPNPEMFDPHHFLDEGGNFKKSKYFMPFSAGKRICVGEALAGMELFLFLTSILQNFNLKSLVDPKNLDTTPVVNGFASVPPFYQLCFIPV
Sequence of CYP2D6 (P10635 whole entry): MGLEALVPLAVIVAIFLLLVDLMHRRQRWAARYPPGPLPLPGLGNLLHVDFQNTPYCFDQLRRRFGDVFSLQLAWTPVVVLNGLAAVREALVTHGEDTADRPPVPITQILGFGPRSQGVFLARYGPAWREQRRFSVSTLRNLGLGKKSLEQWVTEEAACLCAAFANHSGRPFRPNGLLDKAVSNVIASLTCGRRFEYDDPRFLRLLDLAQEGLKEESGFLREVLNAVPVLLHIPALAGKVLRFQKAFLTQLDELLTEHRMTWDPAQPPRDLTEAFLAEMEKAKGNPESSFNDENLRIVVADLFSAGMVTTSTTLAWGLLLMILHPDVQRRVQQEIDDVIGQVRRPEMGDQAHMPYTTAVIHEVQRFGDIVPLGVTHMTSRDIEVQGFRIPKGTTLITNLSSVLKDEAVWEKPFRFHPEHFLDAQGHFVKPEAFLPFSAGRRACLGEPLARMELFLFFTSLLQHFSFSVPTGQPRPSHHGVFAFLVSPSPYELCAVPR

c1ccc2cc3c(ccc4ccccc43)cc2c1 [benzo[a]anthracene]
CYP enzyme activity
Details	CYP1A2	CYP2B6	CYP2C8	CYP2C9	CYP2C19	CYP2D6	CYP3A4
1 µM, treatment time 12 h	1.41	0.781	0.978	0.88	0.754	0.865	0.717
1 µM, treatment time 24 h	1.01	0.901	0.978	1	0.826	0.833	0.662
1 µM, treatment time 48 h	0.817	0.683	1.01	0.927	0.862	0.696	0.702
5 µM, treatment time 12 h	5.62	1.1	0.953	0.995	0.94	1.66	0.809
5 µM, treatment time 24 h	4.68	1.45	0.973	1.02	0.934	1.15	0.844
5 µM, treatment time 48 h	1.98	0.896	0.898	0.989	1.003	0.774	0.754
10 µM, treatment time 12 h	9.59	1.11	0.992	0.949	0.934	2.55	0.907
10 µM, treatment time 24 h	9.37	1.63	0.875	1.02	0.925	1.41	0.855
10 µM, treatment time 48 h	3.86	0.97	0.792	0.849	0.882	0.712	0.702

c1ccc2c(c1)cc1ccc3cccc4ccc2c1c34 [benzo[a]pyrene]
CYP enzyme activity
Details	CYP1A2	CYP2B6	CYP2C8	CYP2C9	CYP2C19	CYP2D6	CYP3A4
1 µM, treatment time 12 h	2.02	0.982	0.886	0.945	0.898	1.11	0.849
1 µM, treatment time 24 h	1.3	1.14	0.925	1	0.895	0.883	0.812
1 µM, treatment time 48 h	0.816	0.753	0.895	0.896	0.85	0.691	0.734
5 µM, treatment time 12 h	7.75	1.22	0.671	0.85	0.908	2.43	1.04
5 µM, treatment time 24 h	4.55	1.61	0.774	1.03	0.847	1.07	0.834
5 µM, treatment time 48 h	1.04	0.977	0.686	0.773	0.855	0.598	0.678
10 µM, treatment time 12 h	5.63	0.881	0.464	0.67	0.761	2.24	1.05
10 µM, treatment time 24 h	7.76	1.52	0.66	0.872	0.835	1.34	0.762
10 µM, treatment time 48 h	1.24	0.954	0.415	0.654	0.661	0.51	0.599

c1ccc2c(c1)-c1cccc3c1c-2cc1ccccc13 [benzo[b]fluoranthene]
CYP enzyme activity
Details	CYP1A2	CYP2B6	CYP2C8	CYP2C9	CYP2C19	CYP2D6	CYP3A4
1 µM, treatment time 12 h	2.68	1.04	0.95	0.95	0.955	1.24	0.857
1 µM, treatment time 24 h	1.78	1.23	0.906	0.907	0.885	0.924	0.751
1 µM, treatment time 48 h	1.75	0.832	0.908	0.891	0.984	0.763	0.732
5 µM, treatment time 12 h	3.81	1.29	0.951	0.978	1.05	1.38	0.925
5 µM, treatment time 24 h	9.11	2.08	0.817	0.951	0.951	1.52	0.823
5 µM, treatment time 48 h	5.4	1.33	0.717	0.82	0.976	0.934	0.732
10 µM, treatment time 12 h	0.947	1.21	0.929	0.939	0.995	1.19	0.875
10 µM, treatment time 24 h	13.2	1.71	0.758	0.842	0.876	1.87	0.723
10 µM, treatment time 48 h	7.06	1.4	0.444	0.602	0.667	0.823	0.495

c1ccc2c(c1)ccc1ccc3ccccc3c12 [benzo[c]phenanthrene]
CYP enzyme activity
Details	CYP1A2	CYP2B6	CYP2C8	CYP2C9	CYP2C19	CYP2D6	CYP3A4
1 µM, treatment time 12 h	1.2	1.02	0.945	1	0.916	0.94	0.867
1 µM, treatment time 24 h	1.09	1.04	0.9596	0.961	0.911	0.773	0.843
1 µM, treatment time 48 h	0.925	0.921	0.962	0.922	1.04	0.772	0.834
5 µM, treatment time 12 h	1.34	1.31	0.947	1.02	1.04	0.992	0.926
5 µM, treatment time 24 h	1.28	1.81	1.04	1.15	1.09	1.05	1.002
5 µM, treatment time 48 h	1.28	2.27	1.09	1.28	1.19	1.05	1.13
10 µM, treatment time 12 h	1.5	1.27	0.958	1.01	1.03	1.04	0.849
10 µM, treatment time 24 h	1.5	2.02	1.13	1.103	1.03	1.13	0.999
10 µM, treatment time 48 h	1.46	2.87	1.08	1.21	1.19	1.08	1.2
